Experimental data as given in patent publication US8076338B2, “Kinase modulators and methods of use” (Exelixis, Inc., priority 2004, dated 2011).
Read-outs that look alike come from different tables or passages of the source.

How the values were obtained:
AktK = AktK (Homo sapiens, UniProt P31749); test: Luciferase-coupled chemiluminescence kinase assay (ATP consumption); format: biochemical; conditions: read-out: AKT-1 IC50
Experimental: (§1) One measure of inhibition is Ki. […] The Ki for a compound is determined from the IC50 based on three assumptions. First, only one compound molecule binds to the enzyme and there is no cooperativity. […] Third, the enzymatic rate of the enzyme-inhibitor complex is zero. The rate data (i.e. compound concentration) are fitted to the equation: […]
(§2) Luciferase-Coupled Chemiluminescence Assay Protocol
(§3) Kinase activity is measured as the percent of ATP consumed following the kinase reaction using luciferase-luciferin-coupled chemiluminescence. Reactions were conducted in 384-well white, medium binding microtiter plates (Greiner). Kinase reactions were initiated by combining test compounds, ATP and kinase in a 20 uL volume. The reaction mixture was incubated at ambient temperature for 3 hrs. For p70S6K and/or AktK, 2.5-5 nM of the enzyme was pre-incubated with compound in 20 mM Tris pH 7.5, 10 mM MgCl2, 0.03% TX-100, and 1 mM DTT for 30 minutes at room temperature. Following the kinase reaction, a 20 μL aliquot of luciferase-luciferin mix was added and the chemiluminescence signal measured using a Victor^2 plate reader (Perkin Elmer). The luciferase-luciferin mix contained 50 mM HEPES, pH 7.8, 67 mM oxalic acid (pH 7.8), 5 (or 50) mM DTT, 0.4% Triton X-100, 0.25 mg/mL coenzyme A, 63 μM AMP, 28 μg/1 mL luciferin and 40,000 units/mL luciferase. Total ATP consumption was limited to 25-60% and the IC50 values correlate well with those determined by radiometric assays.

p70S6K = p70S6K (Homo sapiens, UniProt P23443); test: as above; format: biochemical
Experimental: as §1, §2, §3

p70S6K, sequence (P23443 whole entry): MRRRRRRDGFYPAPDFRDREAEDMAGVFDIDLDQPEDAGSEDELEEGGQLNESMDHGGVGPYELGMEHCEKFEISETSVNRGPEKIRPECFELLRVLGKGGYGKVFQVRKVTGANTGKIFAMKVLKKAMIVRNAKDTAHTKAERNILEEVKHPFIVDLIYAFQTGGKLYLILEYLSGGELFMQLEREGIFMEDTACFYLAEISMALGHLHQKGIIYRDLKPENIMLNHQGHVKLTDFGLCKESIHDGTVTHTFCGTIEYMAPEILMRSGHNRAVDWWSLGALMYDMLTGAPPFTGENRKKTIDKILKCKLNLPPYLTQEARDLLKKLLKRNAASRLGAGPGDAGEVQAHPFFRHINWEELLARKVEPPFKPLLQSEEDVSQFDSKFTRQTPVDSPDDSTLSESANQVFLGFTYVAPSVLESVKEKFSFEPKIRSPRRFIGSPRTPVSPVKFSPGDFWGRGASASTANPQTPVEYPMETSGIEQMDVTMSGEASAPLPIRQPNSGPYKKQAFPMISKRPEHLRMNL
AktK, sequence (P31749 whole entry): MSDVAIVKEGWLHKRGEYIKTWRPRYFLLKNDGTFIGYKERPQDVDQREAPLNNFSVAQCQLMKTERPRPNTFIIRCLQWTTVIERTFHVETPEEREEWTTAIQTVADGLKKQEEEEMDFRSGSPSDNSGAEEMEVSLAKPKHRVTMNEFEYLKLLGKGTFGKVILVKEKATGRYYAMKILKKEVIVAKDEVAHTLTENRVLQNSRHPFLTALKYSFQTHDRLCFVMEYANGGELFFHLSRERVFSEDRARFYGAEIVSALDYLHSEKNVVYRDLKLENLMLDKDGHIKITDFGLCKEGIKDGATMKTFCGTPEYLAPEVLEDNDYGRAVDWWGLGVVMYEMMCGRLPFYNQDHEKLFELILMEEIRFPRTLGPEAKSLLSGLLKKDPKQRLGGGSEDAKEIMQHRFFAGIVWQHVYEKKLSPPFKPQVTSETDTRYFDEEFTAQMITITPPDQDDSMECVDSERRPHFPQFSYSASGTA

IC50 (AktK; Table 1, class symbols per key) | IC50 (p70S6K; Table 1, class symbols per key) | IC50 (p70S6K) | Compound | IC50 (AktK)
≥ 10000 nM | < 100 nM |  | FC(F)(F)c1cccc(N2CCN(c3ncnc4[nH]nc(Br)c34)CC2)c1 [Entry 155, 3-bromo-4-{4-[3-(trifluoromethyl)phenyl]piperazin-1-yl}-1H-pyrazolo[3,4-d]pyrimidine] | 
< 100 nM | < 100 nM |  | Clc1ccc(-c2ccccc2OCCN2CCCC2)cc1N1CCN(c2ncnc3[nH]nc(Br)c23)CC1 [Entry 287, 3-bromo-4-(4-{4-chloro-2′-[(2-pyrrolidin-1-ylethyl)oxy]biphenyl-3-yl}piperazin-1-yl)-1H-pyrazolo[3,4-d]pyrimidine] | 
< 100 nM | < 100 nM |  | Cc1c(CCC[n+]2ccccc2)cc(-c2ccccc2)cc1N1CCN(c2ncnc3[nH]nc(Br)c23)CC1 [Entry 232, 1-(3-{5-[4-(3-bromo-1H-pyrazolo[3,4-d]pyrimidin-4-yl)piperazin-1-yl]-4-methylbiphenyl-3-yl}propyl)pyridinium] | 
< 100 nM | < 100 nM |  | Cc1c(NCCN(C)C)cc(C(=O)NC(C)C)cc1N1CCN(c2ncnc3[nH]nc(Br)c23)CC1 [Entry 227, 3-[4-(3-bromo-1H-pyrazolo[3,4-d]pyrimidin-4-yl)piperazin-1-yl]-5-{[2-(dimethylamino)eth-yl]amino}-4-methyl-N-(1-methylethyl)benzamide] | 
≥ 10000 nM | 100 to 1000 nM |  | CCc1n[nH]c2ncnc(N3CCN(c4nc(C)cnc4C)CC3)c12 [Entry 101, 4-[4-(3,6-dimethylpyrazin-2-yl)piperazin-1-yl]-3-ethyl-1H-pyrazolo[3,4-d]pyrimidine] | 
1000 to 10000 nM | < 100 nM |  | CCc1n[nH]c2ncnc(N3CCN(c4cc(C(F)(F)F)ccc4Cl)CC3)c12 [Entry 171, 4-{4-[2-chloro-5-(trifluoromethyl)phenyl]piperazin-1-yl}-3-ethyl-1H-pyrazolo[3,4-d]pyrimidine] | 
 |  | < 100 nM | Cc1ccccc1N1CCN(c2ncnc3[nH]nc(C)c23)CC1 [Entry 319, 3-methyl-4-[4-(2-methylphenyl)piperazin-1-yl]-1H-pyrazolo[3,4-d]pyrimidine] | 
 |  | < 100 nM | CC(C)=CCc1n[nH]c2ncnc(N3CCN(c4cc(Cl)ccc4C)CC3)c12 [Entry 347, 4-[4-(5-chloro-2-methylphenyl)piperazin-1-yl]-3-(3-methylbut-2-en-1-yl)-1H-pyrazolo[3,4-d]pyrimidine] | 
 |  | 1000 to 10000 nM | CCc1n[nH]c2ncnc(N3CCN(c4cccc(Cl)c4)CC3C(=O)NC)c12 (stereo not drawn) [Entry 362, 4-(3-chlorophenyl)-1-(3-ethyl-1H-pyrazolo[3,4-d]pyrimidin-4-yl)-N-methylpiperazine-2-carboxamide] | 
 |  | 100 to 1000 nM | Cc1ccc(Cl)cc1N1CCN(c2ncnc3[nH]nc(-c4ccc(OCC5CCNCC5)cc4)c23)CC1 [Entry 359, 4-[4-(5-chloro-2-methylphenyl)piperazin-1-yl]-3-{4-[(piperidin-4-ylmethyl)oxy]phenyl}-1H-pyrazolo[3,4-d]pyrimidine] | 

Compound | IC50 (AktK; Table 1, class symbols per key) | IC50 (p70S6K; Table 1, class symbols per key) | IC50 (p70S6K) | IC50 (AktK)
Cc1c(NCCN2CCCC2)cc(OC(F)F)cc1N1CCN(c2ncnc3[nH]nc(Br)c23)CC1 [Entry 253, 3-[4-(3-bromo-1H-pyrazolo[3,4-d]pyrimidin-4-yl)piperazin-1-yl]-5-[(difluoromethyl)oxy]-2-methyl-N-(2-pyrrolidin-1-ylethyl)aniline] | < 100 nM | < 100 nM |  | 
Cc1c(NCCN2CCCC2)cc(Cl)cc1N1CCN(c2ncnc3[nH]nc(Br)c23)CC1 [Entry 29, 3-[4-(3-bromo-1H-pyrazolo[3,4-d]pyrimidin-4-yl)piperazin-1-yl]-5-chloro-2-methyl-N-(2-pyrrolidin-1-ylethyl)aniline] | < 100 nM | < 100 nM |  | 
Cc1ccc(Cl)cc1N1CCN(c2ncnc3[nH]nc(-c4ccccc4)c23)CC1 [Entry 327, 4-[4-(5-chloro-2-methylphenyl)piperazin-1-yl]-3-phenyl-1H-pyrazolo[3,4-d]pyrimidine] |  |  | < 100 nM | 1000 to 10000 nM
3-bromo-4-(4-{4-methyl-2′-[(2-pyrrolidin-1-ylethyl)oxy]biphenyl-3-yl}piperazin-1-yl)-1H-pyrazolo[3,4-d]pyrimidine [Entry 269] | < 100 nM | < 100 nM |  | 
